According to patent publication US20030013099A1, “Genes regulated by DNA methylation in colon tumors” (priority 2001, published 2003):

Test system: HMEC cells
Experiment: microarray differential expression, HMEC cells treated with Aza
Assay type: cell-based, human
Settings: vs untreated, log base 2, negative = upregulation
Method: HT29 cells were derived from a Grade II adenocarcinoma of the colon obtained from a person. HCT116 cells are a subpopulation of malignant cells isolated from a primary cell culture of a single human colonic carcinoma (Brattain et al. (1981) Cancer Res 41:1751-6). HMEC cells are a primary human epithelial cell line derived from the breast tissue of a normal donor. […] Treated cells were exposed to 500 nM 5-aza-2-deoxycytidine (Aza; Sigma-Aldrich) 24 hours after passage in complete culture medium. Control cultures were treated in parallel with phosphate buffered saline vehicle. After twenty-four hours, culture medium was replaced with drug-free medium. Control and Aza-treated cells were subcultured at equal densities at 1 and 5 days after the initial treatment, and proliferation was measured at the subsequent time point using a Coulter counter (Beckman Coulter, Fullerton Calif.). […]
Cells were harvested and lysed in 1 ml of TRIZOL reagent (5×10^6 cells/ml; Invitrogen). The lysates were vortexed thoroughly and incubated at room temperature for 2-3 minutes and extracted with 0.5 ml chloroform. The extract was mixed, incubated at room temperature for 5 minutes, and centrifuged at 16,000× g for 15 minutes at 4° C. The aqueous layer was collected, and an equal volume of isopropanol was added. Samples were mixed, incubated at room temperature for 10 minutes, and centrifuged at 16,000× g for 20 minutes at 4° C. The supernatant was removed, and the RNA pellet was washed with 1 ml of 70% ethanol, centrifuged at 16,000× g at 4° C., and resuspended in RNAse-free water. The concentration of the RNA was determined by measuring the optical density at 260 nm.
Poly(A) RNA was prepared using an OLIGOTEX mRNA kit (Qiagen) with the following modifications: OLIGOTEX beads were washed in tubes instead of on spin columns, resuspended in elution buffer, and then loaded onto spin columns to recover mRNA. To obtain maximum yield, the mRNA was eluted twice.
Each poly(A) RNA sample was reverse transcribed using MMLV reverse-transcriptase, 0.05 pg/μl oligo-d(T) primer (21mer), 1× first strand buffer, 0.03 units/ul RNAse inhibitor, 500 uM dAT?, 500 uM dGTP, 500 uM dTTP, 40 uM dCTP, and 40 uM either dCTP-Cy3 or dCTP-Cy5 (APB). The reverse transcription reaction was performed in a […] volume containing 200 ng poly(A) RNA using the GEMBRIGHT kit (Incyte Genomics). Specific control poly(A) RNAs (YCFRO6, YCFR45, YCFR67, YCFR85, YCFR43, YCFR22, YCFR23, YCFR25, YCFR44, YCFR26) were synthesized by in vitro transcription from non-coding yeast genomic DNA (W. Lei, unpublished). As quantitative controls, control mRNAs (YCFRO6, YCFR45, YCFR67, and YCFR85) at 0.002 ng, 0.02 ng, 0.2 ng, and 2 ng were diluted into reverse transcription reaction at ratios of 1:100,000, 1:10,000, 1:1000, 1:100 (w/w) to sample mRNA, respectively. To sample differential expression patterns, control mRNAs (YCFR43, YCFR22, YCFR23, YCFR25, YCFR44, YCFR26) were diluted into reverse transcription reaction at ratios of 1:3, 3:1, 1:10, 10:1, 1:25, 25:1 (w/w) to sample mRNA. Reactions were incubated at 37° C. for 2 hours, treated with […] of 0.5M sodium hydroxide, and incubated for 20 minutes at 85° C. to the stop the reaction and degrade the RNA.
cDNAs were purified using two successive CHROMA SPIN 30 gel filtration spin columns (Clontech). Cy3- and Cy5-labeled reaction samples were combined as described below and ethanol precipitated using […] of 100% ethanol. The cDNAs were then dried to completion using a SpeedVAC system (Savant Instruments, Holbrook N.Y.) and resuspended in 14 μl 5× SSC, 0.2% SDS.
Hybridization reactions contained 9 μl of sample mixture containing 0.2 μg each of Cy3 and CyS labeled cDNA synthesis products in 5× SSC, 0.2% SDS hybridization buffer. The mixture was heated to 65° C. for 5 minutes and was aliquoted onto the microarray surface and covered with an 1.8 cm^2 coverslip. […]

[1] = SEQ ID NO:1 hypothetical protein
[2] = SEQ ID NO:3 interferon-inducible protein
[3] = SEQ ID NO:5 chromosome 6p21.3, HLA Class I region
[4] = SEQ ID NO:6 unnamed protein product
[5] = SEQ ID NO:8 putative tumor antigen
[6] = SEQ ID NO:12 cDNA clone ZD16H10
[7] = SEQ ID NO:13, 14 T-cell receptor gamma
[8] = SEQ ID NO:15 pTR5 repetitive sequence
[9] = SEQ ID NO:24 pTR7 repetitive sequence
[10] = SEQ ID NO:25 chromosome 21 segment HS21C049
[11] = SEQ ID NO:26 hypothetical protein

SMILES: Nc1ncn([C@H]2C[C@H](O)[C@@H](CO)O2)c(=O)n1 [Aza, 5-aza-2-deoxycytidine]
- differential expression, Clone ID 2416222, HMEC t/Aza (4d) [1]: 0.00
- differential expression, Clone ID 2416222, HMEC t/Aza (9d) [1]: 0.00
- differential expression, Clone ID 4103545, HMEC t/Aza (4d) (SEQ ID NO:2 Incyte Unique): −0.13
- differential expression, Clone ID 4103545, HMEC t/Aza (9d) (SEQ ID NO:2 Incyte Unique): −0.43
- differential expression, Clone ID 322569, HMEC t/Aza (4d) [2]: −0.53
- differential expression, Clone ID 322569, HMEC t/Aza (9d) [2]: −0.80
- differential expression, Clone ID 5322134, HMEC t/Aza (4d) [3]: −0.32
- differential expression, Clone ID 5322134, HMEC t/Aza (9d) [3]: −0.43
- differential expression, Clone ID 1698458, HMEC t/Aza (4d) [4]: 0.26
- differential expression, Clone ID 1698458, HMEC t/Aza (9d) [4]: 0.26
- differential expression, Clone ID 1871523, HMEC t/Aza (4d) (SEQ ID NO:7 KIAA1046 protein): −0.24
- differential expression, Clone ID 1871523, HMEC t/Aza (9d) (SEQ ID NO:7 KIAA1046 protein): −0.07
- differential expression, Clone ID 6024084, HMEC t/Aza (4d) [5]: 0.00
- differential expression, Clone ID 6024084, HMEC t/Aza (9d) [5]: 0.00
- differential expression, Clone ID 3810006, HMEC t/Aza (4d) (SEQ ID NO:9 Incyte Unique): 0.00
- differential expression, Clone ID 3810006, HMEC t/Aza (9d) (SEQ ID NO:9 Incyte Unique): 0.00
- differential expression, Clone ID 4508879, HMEC t/Aza (4d) (SEQ ID NO:10 Incyte Unique): −0.14
- differential expression, Clone ID 4508879, HMEC t/Aza (9d) (SEQ ID NO:10 Incyte Unique): −0.20
- differential expression, Clone ID 4225379, HMEC t/Aza (4d) (SEQ ID NO:11 U 6 RNA): 0.00
- differential expression, Clone ID 4225379, HMEC t/Aza (9d) (SEQ ID NO:11 U 6 RNA): 0.00
- differential expression, Clone ID 3463713, HMEC t/Aza (4d) [6]: −0.26
- differential expression, Clone ID 3463713, HMEC t/Aza (9d) [6]: −0.48
- differential expression, Clone ID 2998017, HMEC t/Aza (4d) [7]: 0.00
- differential expression, Clone ID 2998017, HMEC t/Aza (9d) [7]: 0.00
- differential expression, Clone ID 4318273, HMEC t/Aza (4d) [8]: 0.00
- differential expression, Clone ID 4318273, HMEC t/Aza (9d) [8]: −0.26
- differential expression, Clone ID 1649414, HMEC t/Aza (4d) (SEQ ID NO:16 Hep27 protein): −0.32
- differential expression, Clone ID 1649414, HMEC t/Aza (9d) (SEQ ID NO:16 Hep27 protein): −0.32
- differential expression, Clone ID 1684742, HMEC t/Aza (4d) (SEQ ID NO:18 cDNA FLJ20222): −0.36
- differential expression, Clone ID 1684742, HMEC t/Aza (9d) (SEQ ID NO:18 cDNA FLJ20222): −0.20
- differential expression, Clone ID 2825816, HMEC t/Aza (4d) (SEQ ID NO:19 KIAA0412): 0.00
- differential expression, Clone ID 2825816, HMEC t/Aza (9d) (SEQ ID NO:19 KIAA0412): 0.00
- differential expression, Clone ID 2440943, HMEC t/Aza (4d) (SEQ ID NO:21 Incyte Unique): −0.20
- differential expression, Clone ID 2440943, HMEC t/Aza (9d) (SEQ ID NO:21 Incyte Unique): −0.26
- differential expression, Clone ID 1294339, HMEC t/Aza (4d) (SEQ ID NO:22 PDGF-B): −0.68
- differential expression, Clone ID 1294339, HMEC t/Aza (9d) (SEQ ID NO:22 PDGF-B): −0.72
- differential expression, Clone ID 5104741, HMEC t/Aza (4d) (SEQ ID NO:23 cDNA FLJ10570): 0.00
- differential expression, Clone ID 5104741, HMEC t/Aza (9d) (SEQ ID NO:23 cDNA FLJ10570): 0.00
- differential expression, Clone ID 1855389, HMEC t/Aza (4d) [9]: −0.14
- differential expression, Clone ID 1855389, HMEC t/Aza (9d) [9]: −0.26
- differential expression, Clone ID 5207613, HMEC t/Aza (4d) [10]: −0.26
- differential expression, Clone ID 5207613, HMEC t/Aza (9d) [10]: −0.37
- differential expression, Clone ID 3207902, HMEC t/Aza (4d) [11]: −0.14
- differential expression, Clone ID 3207902, HMEC t/Aza (9d) [11]: −0.26
- differential expression, Clone ID 4999769, HMEC t/Aza (4d) (SEQ ID NO:27 ZNFpT17): 0.00
- differential expression, Clone ID 4999769, HMEC t/Aza (9d) (SEQ ID NO:27 ZNFpT17): 0.07
- differential expression, Clone ID 408886, HMEC t/Aza (4d) (SEQ ID NO:28 transketolase): −0.26
- differential expression, Clone ID 408886, HMEC t/Aza (9d) (SEQ ID NO:28 transketolase): −0.32
- differential expression, Clone ID 4764233, HMEC t/Aza (4d) (SEQ ID NO:30 GAGE-8): 0.00
